Measurements as given in article PMC10826971, “Evaluating protein cross-linking as a therapeutic strategy to stabilize SOD1 variants in a mouse model of familial ALS” (PLOS Biology, 2024).
Entries after “also recorded” stand apart in the source; their conditions may differ.

Key:
human serum albumin = human serum albumin (Homo sapiens, UniProt P02768); format: in vitro ADME
[1] = target: T1, EGFP-labeled SOD1 (wild-type, fALS variants, Cys111Ser, F50E/G51E) (Homo sapiens, UniProt P00441, F51E/G52E); test: Immunoblotting for SOD1-EGFP cross-linking in NSC-34 cells; format: cell-based, mouse NSC-34 cells; conditions: 20 μm S-XL6
T1 construct: expressed in transfected cells; host or cells: NSC-34 mouse neuroblastoma/motor neuron hybrid cells
Protocol: (§1) Mouse neuroblastoma/motor neuron hybrid cells (NSC-34) were cultured and maintained as previously described. Briefly, NSC-34 cells were cultured in Dulbecco’s Modified Eagle’s Medium with F12 supplement (DMEM/F12, Invitrogen Australia) containing 10% (v/v) heat-inactivated fetal bovine serum (FBS, Bovogen Biologicals, Australia) and 2 mM L-Glutamine (Invitrogen, Australia). Cells were passaged using 0.25% trypsin, 0.02% EDTA (Invitrogen, Australia). Cells were maintained within humidified incubators at 37°C with 5% CO2.
(§2) To transfect NSC-34 cells, they were first plated out to 40% confluency in either 6-well or 12-well tissue culture-treated plates and cultured for 24 h. Following this, TransIT-X2 reagent (Mirus Bio, USA) was used according to the manufacturer’s instructions to transfect NSC-34’s (1 μg DNA per well for 12-well plates, 2.5 μg per well for a 6-well plate). Cells were then incubated for 8 h prior to replating for experiments into other plates or chambers.
(§3) Transfected NSC-34 cells were plated out into 12-well plates and left overnight. […] Cells were then harvested via aspiration and pelleted (300 × g). Lysis and immunoblots were carried out as previously described. Briefly, cell pellets were lysed in ice-cold lysis buffer containing protease inhibitors (Thermo Fisher, USA) and N-ethylmaleimide (NEM) at a final concentration of 1 mg/mL. Protein concentration was measured by DC assay (BioRad, Australia) and samples were denatured in SDS-sample buffer containing 40 mM NEM at 90°C for 5 min. Lysates were loaded into 26-lane stain-free gels (BioRad, Australia) and electrophoresed. Proteins were transferred to 0.2 μm PVDF membranes for 1 h at 4°C. Membranes were blocked in 5% skim milk in TBST for 1 h prior to addition to primary antibody which as a rabbit anti-GFP antibody (ab290, 1:5,000, Abcam USA) and incubated overnight at 4°C. Membranes were washed 3× and then incubated for 1 h at room temperature in secondary antibody (goat anti-rabbit HRP conjugate at 1:5,000 (catalog no.: P0448; Dako). Membranes were then washed 3× prior to developing with SuperSignal West Pico Plus substrate (Thermo Fisher Scientific).

[2] = system: EGFP-labeled SOD1 (wild-type, fALS variants, Cys111Ser, F50E/G51E); test: as above; format: cell-based, mouse NSC-34 cells
Protocol: as §1, §2, §3

SOD1^G93A = SOD1^G93A (Homo sapiens, UniProt P00441, G94A); test: Small-angle x-ray solution scattering (SAXS); set-up: made in house; host or cells: EGy118ΔSOD1 yeast, YEp351 expression vector; conditions: GNOM; untreated over 200 Å
Protocol: SAXS data were collected at the G1 beamline at Cornell High Energy Synchrotron Source (CHESS). For each sample, 2 measurements were taken, one of the protein with buffer and one with buffer by itself. Solution scattering data were captured every second for 10 frames. The 10 frames of both buffer and protein were then averaged and the buffer was subtracted out to get the scattering for the protein. Samples were run in a 96-well plate and held at 4°C continuously. Data collection was in the scattering angle (q) range of 0.008 to 0.71 Å^-1 and processed using the software, RAW.
Control sample contained 5% MeOH (final conc. 2.5%). Samples were then incubated at 37°C for 6 h to ensure complete cross-linking. After incubation, excess compound was buffer exchanged out of each sample using a 10 kDa MWCO ultrafiltration device, and 320 μL is diluted to 15 mL into HEPES buffer, spun down to approximately 500 μL, and resuspended in another 15 mL of HEPES buffer. After the final spin, samples were removed and concentrated in a smaller ultrafiltration device and brought to approximately 70 μL final volume (4.7 μm). Samples were flash frozen and stored at –80°C prior to analysis.
The GNOM program was used to evaluate the pair distribution plot using an indirect Fourier transform. […]

Chain of human serum albumin (P02768 25-609): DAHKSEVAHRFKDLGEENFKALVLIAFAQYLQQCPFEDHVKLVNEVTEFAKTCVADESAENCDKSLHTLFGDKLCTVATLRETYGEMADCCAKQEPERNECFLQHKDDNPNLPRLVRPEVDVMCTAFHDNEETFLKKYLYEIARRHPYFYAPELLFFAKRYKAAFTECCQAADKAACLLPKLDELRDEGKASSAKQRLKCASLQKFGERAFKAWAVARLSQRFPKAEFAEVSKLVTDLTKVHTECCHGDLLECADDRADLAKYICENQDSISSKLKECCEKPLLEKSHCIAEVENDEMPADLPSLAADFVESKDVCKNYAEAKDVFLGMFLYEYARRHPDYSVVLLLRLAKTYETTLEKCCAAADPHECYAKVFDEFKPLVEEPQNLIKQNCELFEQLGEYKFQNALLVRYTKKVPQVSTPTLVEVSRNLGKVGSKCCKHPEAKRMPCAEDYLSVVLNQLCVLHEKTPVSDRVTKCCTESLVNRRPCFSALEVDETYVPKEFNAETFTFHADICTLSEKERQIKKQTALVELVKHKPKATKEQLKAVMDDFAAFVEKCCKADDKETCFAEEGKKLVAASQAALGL
T1 sequence (P00441 2-154 F51E/G52E): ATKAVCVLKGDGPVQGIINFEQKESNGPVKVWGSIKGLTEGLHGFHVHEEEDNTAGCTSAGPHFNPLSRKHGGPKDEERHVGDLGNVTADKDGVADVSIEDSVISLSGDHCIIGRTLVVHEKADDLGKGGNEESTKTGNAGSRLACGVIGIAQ
Chain of SOD1^G93A (P00441 2-154 G94A limits assumed): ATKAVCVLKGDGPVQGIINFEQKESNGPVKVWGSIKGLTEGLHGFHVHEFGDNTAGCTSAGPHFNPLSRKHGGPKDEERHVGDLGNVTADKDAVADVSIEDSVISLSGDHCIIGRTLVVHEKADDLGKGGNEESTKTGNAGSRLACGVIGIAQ

With `[O-][S+]1CCCCS1` (centres unmarked) [S-XL6, 1,2-dithiane-1-oxide] the “binding to purified protein” value (human serum albumin) was “not bound”, the “binding to the constitutively monomeric variant (F50E/G51E)” value [1] was “lack of binding” and the “cross-linking yield compared to leading cyclic thiosulfinates (Comp 2–5)” value [2] was “highest cross-linking yield; also recorded: most effective compound”. For the same molecule, the “off-product with EGFP-wild-type and EGFP-D90A SOD1” value [2] was “high-molecular weight species consistent with trimeric SOD1” and the “Dmax of SOD1^G93A with S-XL6” value (SOD1^G93A) was “approximately 79 Å”.
